Calls of active or inactive are those of the source. The calls are words filed in the database; no cut-off is given here.
Tests used:
SK-OV-3 = test: Antiproliferative activity against human SK-OV-3 cells incubated for 72 hrs by MTT assay; type: functional, cell-based; conditions: SK-OV-3, 72 h
[1] = target: T1, Histone deacetylase 3 (Mus musculus) (UniProt O88895); test: Inhibition of HDAC3 in mouse B16-F10 cells assessed as reduction in PD-L1 level at 2.5 uM incubated for 24 hrs by immunofluorescence based analysis; type: cell-based
T1 sequence (whole entry): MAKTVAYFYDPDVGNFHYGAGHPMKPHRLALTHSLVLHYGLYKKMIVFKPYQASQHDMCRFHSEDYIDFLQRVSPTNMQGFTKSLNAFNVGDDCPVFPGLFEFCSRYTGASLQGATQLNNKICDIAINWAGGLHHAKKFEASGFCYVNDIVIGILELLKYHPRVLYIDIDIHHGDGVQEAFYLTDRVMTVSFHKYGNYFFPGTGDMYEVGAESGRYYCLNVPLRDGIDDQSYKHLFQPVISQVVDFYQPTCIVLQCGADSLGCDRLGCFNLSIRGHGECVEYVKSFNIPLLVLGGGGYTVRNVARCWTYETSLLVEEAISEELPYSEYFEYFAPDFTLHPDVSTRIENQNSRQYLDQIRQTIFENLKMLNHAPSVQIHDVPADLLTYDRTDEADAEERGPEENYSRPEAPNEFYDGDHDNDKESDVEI

B16-F10 [2] = test: Induction of apoptosis in mouse B16-F10 cells assessed as late-stage apoptosis at 2.5 uM incubated for 48 hrs by Annexin V-FITC/PI staining based flow cytometry relative to control; type: functional
Histone deacetylase 3 = Histone deacetylase 3 (Homo sapiens, UniProt O15379); test: Inhibition of HDAC3 (unknown origin)
Sequence of Histone deacetylase 3 (O15379 whole entry): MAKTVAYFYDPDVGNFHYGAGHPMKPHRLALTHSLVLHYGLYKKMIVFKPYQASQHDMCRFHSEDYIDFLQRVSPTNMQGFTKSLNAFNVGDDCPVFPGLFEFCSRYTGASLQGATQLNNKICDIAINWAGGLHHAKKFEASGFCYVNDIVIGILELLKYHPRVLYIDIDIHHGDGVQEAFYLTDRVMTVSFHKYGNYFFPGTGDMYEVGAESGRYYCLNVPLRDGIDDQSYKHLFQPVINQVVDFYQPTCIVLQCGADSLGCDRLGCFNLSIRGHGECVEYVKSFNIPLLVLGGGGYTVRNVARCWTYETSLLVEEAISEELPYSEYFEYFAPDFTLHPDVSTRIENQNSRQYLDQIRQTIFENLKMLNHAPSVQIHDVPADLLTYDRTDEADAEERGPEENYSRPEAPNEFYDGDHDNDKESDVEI

K562 = test: Antiproliferative activity against human K562 cells incubated for 72 hrs by CCK8 assay; type: functional, cell-based; conditions: K562, 72 h
[3] = Antiproliferative activity against human HK-2 cells incubated for 72 hrs by MTT assay
Histone deacetylase 1 = Histone deacetylase 1 (Homo sapiens, UniProt Q13547); test: Inhibition of HDAC1 (unknown origin)
Sequence of Histone deacetylase 1 (Q13547 whole entry): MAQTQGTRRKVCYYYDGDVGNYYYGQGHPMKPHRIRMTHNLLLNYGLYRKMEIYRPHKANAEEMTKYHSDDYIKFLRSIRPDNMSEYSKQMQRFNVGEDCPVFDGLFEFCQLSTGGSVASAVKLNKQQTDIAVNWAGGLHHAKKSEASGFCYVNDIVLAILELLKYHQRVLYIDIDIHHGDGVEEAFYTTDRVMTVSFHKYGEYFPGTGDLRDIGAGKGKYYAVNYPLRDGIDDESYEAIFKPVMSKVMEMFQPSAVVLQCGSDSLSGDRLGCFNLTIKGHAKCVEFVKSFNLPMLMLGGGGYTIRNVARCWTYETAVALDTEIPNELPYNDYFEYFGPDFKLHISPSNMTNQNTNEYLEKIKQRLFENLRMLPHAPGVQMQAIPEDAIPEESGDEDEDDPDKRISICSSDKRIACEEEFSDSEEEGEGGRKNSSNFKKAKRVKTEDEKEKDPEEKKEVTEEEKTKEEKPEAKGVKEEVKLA

Histone deacetylase 8 = target: T2, Histone deacetylase 8 (Homo sapiens, UniProt Q9BY41); test: Inhibition of HDAC8 (unknown origin)
T2 sequence (Q9BY41 whole entry): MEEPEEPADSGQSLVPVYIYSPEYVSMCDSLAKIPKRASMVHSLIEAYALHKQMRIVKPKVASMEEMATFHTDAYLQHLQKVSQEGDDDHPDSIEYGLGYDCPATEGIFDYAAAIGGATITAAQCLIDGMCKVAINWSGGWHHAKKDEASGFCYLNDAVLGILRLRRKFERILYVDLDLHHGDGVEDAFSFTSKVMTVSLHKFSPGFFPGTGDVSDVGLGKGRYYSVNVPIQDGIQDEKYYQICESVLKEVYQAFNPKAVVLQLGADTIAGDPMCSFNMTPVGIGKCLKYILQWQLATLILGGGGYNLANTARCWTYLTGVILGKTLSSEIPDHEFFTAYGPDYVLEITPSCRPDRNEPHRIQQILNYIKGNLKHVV

B16-F10 [4] = test: Induction of antitumor immunity in mouse B16-F10 cells assessed as reduction in PD-L1 level incubated for 24 hrs by Western blot analysis; type: functional, cell-based; conditions: dose 2.5-10 µM
HCT-116 [5] = test: cells; type: functional; conditions: Homo sapiens, time 72 hrs
[6] = target: T3, Protein deacetylase HDAC6 (Homo sapiens, UniProt Q9UBN7); test: Inhibition of HDAC6 (unknown origin)
T3 sequence (Q9UBN7 whole entry): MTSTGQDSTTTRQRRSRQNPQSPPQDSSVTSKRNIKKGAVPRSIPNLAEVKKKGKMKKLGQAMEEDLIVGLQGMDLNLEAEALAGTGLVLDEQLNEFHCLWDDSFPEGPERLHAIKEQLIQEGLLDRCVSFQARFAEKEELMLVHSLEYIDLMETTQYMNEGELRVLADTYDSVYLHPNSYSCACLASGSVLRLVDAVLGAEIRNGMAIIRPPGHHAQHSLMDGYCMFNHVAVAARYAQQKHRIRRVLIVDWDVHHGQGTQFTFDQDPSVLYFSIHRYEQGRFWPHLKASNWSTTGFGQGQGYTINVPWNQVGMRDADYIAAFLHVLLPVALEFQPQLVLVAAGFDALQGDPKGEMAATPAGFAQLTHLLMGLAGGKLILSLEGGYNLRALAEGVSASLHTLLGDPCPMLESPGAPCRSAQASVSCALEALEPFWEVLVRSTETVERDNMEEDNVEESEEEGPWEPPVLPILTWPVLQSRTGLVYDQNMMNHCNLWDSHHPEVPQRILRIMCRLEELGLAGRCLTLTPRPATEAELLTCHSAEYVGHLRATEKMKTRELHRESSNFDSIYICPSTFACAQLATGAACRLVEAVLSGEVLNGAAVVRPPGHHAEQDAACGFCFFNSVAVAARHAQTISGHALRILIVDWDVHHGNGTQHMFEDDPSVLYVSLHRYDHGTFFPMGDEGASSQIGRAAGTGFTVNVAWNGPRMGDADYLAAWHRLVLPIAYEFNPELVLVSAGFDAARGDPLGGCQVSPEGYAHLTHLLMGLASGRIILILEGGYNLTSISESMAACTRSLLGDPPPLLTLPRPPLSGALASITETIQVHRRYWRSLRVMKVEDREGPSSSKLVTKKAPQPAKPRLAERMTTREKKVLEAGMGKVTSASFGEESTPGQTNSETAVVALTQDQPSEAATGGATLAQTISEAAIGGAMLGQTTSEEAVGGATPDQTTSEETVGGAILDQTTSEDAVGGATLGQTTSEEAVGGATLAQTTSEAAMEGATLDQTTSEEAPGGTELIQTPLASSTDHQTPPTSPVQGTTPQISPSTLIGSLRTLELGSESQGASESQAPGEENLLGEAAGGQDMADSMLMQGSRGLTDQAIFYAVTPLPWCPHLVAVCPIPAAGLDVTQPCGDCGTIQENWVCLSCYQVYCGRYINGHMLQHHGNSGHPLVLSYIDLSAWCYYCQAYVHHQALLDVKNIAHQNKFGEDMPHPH

B16-F10 [7] = test: Antiproliferative activity against mouse B16-F10 cells incubated for 72 hrs by MTT assay; type: functional, cell-based; conditions: B16-F10, 72 h
B16-F10 [8] = test: Anti-migratory activity in mouse B16-F10 cells at 1.25 to 5 uM measured after 36 hrs by wound healing assay relative to control; type: functional; conditions: dose 1.25-5 µM
4T1 = test: Antiproliferative activity against mouse 4T1 cells incubated for 72 hrs by MTT assay; type: functional, cell-based; conditions: 4T1, 72 h
HCT-116 [9] = test: Antiproliferative activity against human HCT-116 cells incubated for 72 hrs by MTT assay; type: functional, cell-based; conditions: HCT-116, 72 h
[10] = target: T1, Histone deacetylase 3 (Mus musculus); test: Inhibition of HDAC3 in mouse B16-F10 cells assessed as increase in Ac-H3 level incubated for 24 hrs by Western blot analysis; type: cell-based; conditions: dose 2.5-10 µM
B16-F10 [11] = test: Upregulation of Ac-alpha-tubulin level in mouse B16-F10 cells at 2.5 to 10 uM incubated for 24 hrs by Western blot analysis; type: functional, cell-based; conditions: dose 2.5-10 µM
B16-F10 [12] = test: Induction of cell cycle arrest in mouse B16-F10 cells assessed as cell accumulation incubated for 24 hrs by PI staining based flow cytometry; type: functional; conditions: dose 2.5-10 µM

Row | SMILES | IC50 (SK-OV-3) [µM] | inhibition [1] | Activity (B16-F10 [2]) [%] | IC50 (Histone deacetylase 3) [nM] | IC50 (K562) [nM] | IC50 at 72 h [3] [µM] | IC50 (Histone deacetylase 1) [µM] | IC50 (Histone deacetylase 8) [µM] | Activity (B16-F10 [4]) | inhibition at 10 µM (HCT-116 [5]) [%] | IC50 [6] [µM] | IC50 (B16-F10 [7]) [µM] | Activity (B16-F10 [8]) [%] | IC50 (4T1) [µM] | IC50 (HCT-116 [9]) [nM] | inhibition [10] | Activity (B16-F10 [11]) | Activity (B16-F10 [12])
1 | CCCNNC(=O)CCCCCCNC(=O)c1cnc(-c2ccc(NC(=O)OC(C)(C)C)cc2)s1 | 5.76 | Active | 20.6 | 310 | 1060 | 11.5 | 4.68 | > 10 | Dose-dependent-effect; Activity Was Similar To Ms-275 | 93.6 | > 10 | 5.22 | >80 | 9.83 | 3310 | Dose-dependent-effect | inactive | Dose-dependent-effect
2 | CCCNNC(=O)c1ccc(NC(=O)c2cnc(-c3ccc(OC(F)(F)F)cc3)s2)cc1 | 8.37 | Active | 24 | 400 | 4570 | 10.9 | 1.57 | > 10 | Dose-dependent-effect; Activity Was Similar To Ms-275 | < 50 | > 10 | 6.07 | >80 | 7.57 | 1670 | Dose-dependent-effect | inactive | Dose-dependent-effect
